From ChEMBL document CHEMBL1201862, “PubChem BioAssay data set” (2004)
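Protocol summary: plate cells (96-well), add compound at 5 concentrations, incubate 48 h, interpolate endpoints linearly. GI50 marks 50% less growth.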 The source made the active and inactive calls. Cut-off read from the data, not from the text of the source: active = GI50 up to about 1.1 µM and inactive = higher.

Legend:
Test in all cases: DTP human tumour cell line panel, 48 h
MOLT-4 = tested on: MOLT-4
HOP-92 = tested on: HOP-92
DU-145 = tested on: DU-145
ACHN = tested on: ACHN
HCC 2998 = tested on: HCC 2998
NCI-H522 = tested on: NCI-H522
UACC-62 = tested on: UACC-62
HCT-15 = tested on: HCT-15
SN12C = tested on: SN12C
NCI-H460 = tested on: NCI-H460
KM12 = tested on: KM12
OVCAR-3 = tested on: OVCAR-3
OVCAR-8 = tested on: OVCAR-8
HT-29 = tested on: HT-29
786-0 = tested on: 786-0
MDA-MB-231 = tested on: MDA-MB-231
CAKI-1 = tested on: CAKI-1
NCI/ADR-RES = tested on: NCI/ADR-RES
HCT-116 = tested on: HCT-116
MDA-N = tested on: MDA-N
UO-31 = tested on: UO-31
OVCAR-5 = tested on: OVCAR-5
HL-60 = tested on: HL-60
SF-268 = tested on: SF-268
CCRF-CEM = tested on: CCRF-CEM
SW-620 = tested on: SW-620
MDA-MB-435 = tested on: MDA-MB-435
IGROV-1 = tested on: IGROV-1
SK-MEL-2 = tested on: SK-MEL-2
RXF 393 = tested on: RXF 393
UACC-257 = tested on: UACC-257
SK-OV-3 = tested on: SK-OV-3
A549 = tested on: A549
SK-MEL-5 = tested on: SK-MEL-5
SNB-19 = tested on: SNB-19
SR = tested on: SR
K562 = tested on: K562
Hs-578T = tested on: Hs-578T
SF-539 = tested on: SF-539
PC-3 = tested on: PC-3
OVCAR-4 = tested on: OVCAR-4
SK-MEL-28 = tested on: SK-MEL-28
HOP-62 = tested on: HOP-62
COLO 205 = tested on: COLO 205
Malme-3M = tested on: Malme-3M
T47D = tested on: T47D
SF-295 = tested on: SF-295
U-251 = tested on: U-251
LOX IMVI = tested on: LOX IMVI
SNB-75 = tested on: SNB-75
NCI-H226 = tested on: NCI-H226
NCI-H23 = tested on: NCI-H23
EKVX = tested on: EKVX
TK-10 = tested on: TK-10
RPMI-8226 = tested on: RPMI-8226
M14 = tested on: M14
A498 = tested on: A498
MCF7 = tested on: MCF7

COCCOC(=O)C1=C(O)c2ccccc2S(=O)(=O)N1C
GI50 (MOLT-4): > 100 µM (inactive) | GI50 (HOP-92): > 100 µM (inactive) | GI50 (DU-145): > 100 µM (inactive) | GI50 (ACHN): > 100 µM (inactive) | GI50 (HCC 2998): > 100 µM (inactive) | GI50 (NCI-H522): > 100 µM (inactive) | GI50 (UACC-62): > 100 µM (inactive) | GI50 (HCT-15): > 100 µM | GI50 (SN12C): > 100 µM (inactive) | GI50 (NCI-H460): > 100 µM (inactive) | GI50 (KM12): > 100 µM (inactive) | GI50 (OVCAR-3): > 100 µM (inactive) | GI50 (OVCAR-8): > 100 µM (inactive) | GI50 (HT-29): > 100 µM (inactive) | GI50 (786-0): > 100 µM (inactive) | GI50 (MDA-MB-231): > 100 µM (inactive) | GI50 (CAKI-1): > 100 µM (inactive) | GI50 (NCI/ADR-RES): > 100 µM (inactive) | GI50 (HCT-116): > 100 µM (inactive) | GI50 (MDA-N): > 100 µM (inactive) | GI50 (UO-31): > 100 µM (inactive) | GI50 (OVCAR-5): > 100 µM (inactive) | GI50 (HL-60): > 100 µM (inactive) | GI50 (SF-268): > 100 µM (inactive) | GI50 (CCRF-CEM): > 100 µM (inactive) | GI50 (SW-620): > 100 µM (inactive) | GI50 (MDA-MB-435): > 100 µM (inactive) | GI50 (IGROV-1): > 100 µM (inactive) | GI50 (SK-MEL-2): > 100 µM (inactive) | GI50 (RXF 393): > 100 µM (inactive) | GI50 (UACC-257): > 100 µM (inactive) | GI50 (SK-OV-3): > 100 µM (inactive) | GI50 (A549): > 100 µM (inactive) | GI50 (SK-MEL-5): > 100 µM (inactive) | GI50 (SNB-19): > 100 µM (inactive) | GI50 (SR): > 100 µM (inactive) | GI50 (K562): > 100 µM (inactive) | GI50 (Hs-578T): > 100 µM (inactive) | GI50 (SF-539): > 100 µM (inactive) | GI50 (PC-3): > 100 µM (inactive) | GI50 (OVCAR-4): > 100 µM (inactive) | GI50 (SK-MEL-28): > 100 µM (inactive) | GI50 (HOP-62): > 100 µM (inactive) | GI50 (COLO 205): > 100 µM (inactive) | GI50 (Malme-3M): > 100 µM (inactive) | GI50 (T47D): > 100 µM (inactive) | GI50 (SF-295): > 100 µM (inactive) | GI50 (U-251): > 100 µM (inactive) | GI50 (LOX IMVI): > 100 µM (inactive) | GI50 (SNB-75): 12.5 µM (inactive) | GI50 (NCI-H226): > 100 µM (inactive) | GI50 (NCI-H23): > 100 µM (inactive) | GI50 (EKVX): > 100 µM (inactive) | GI50 (TK-10): > 100 µM (inactive) | GI50 (RPMI-8226): > 100 µM (inactive) | GI50 (M14): > 100 µM (inactive) | GI50 (A498): > 100 µM (inactive)

O=P(O)(O)C=C=C1CCCCC1
GI50 (HOP-92): > 100 µM (inactive) | GI50 (DU-145): > 100 µM (inactive) | GI50 (ACHN): > 100 µM (inactive) | GI50 (HCC 2998): > 100 µM (inactive) | GI50 (NCI-H522): > 100 µM (inactive) | GI50 (UACC-62): > 100 µM (inactive) | GI50 (HCT-15): > 100 µM | GI50 (SN12C): > 100 µM (inactive) | GI50 (NCI-H460): > 100 µM (inactive) | GI50 (KM12): > 100 µM (inactive) | GI50 (OVCAR-3): > 100 µM (inactive) | GI50 (OVCAR-8): > 100 µM (inactive) | GI50 (HT-29): > 100 µM (inactive) | GI50 (786-0): > 100 µM (inactive) | GI50 (CAKI-1): > 100 µM (inactive) | GI50 (NCI/ADR-RES): > 100 µM (inactive) | GI50 (HCT-116): > 100 µM (inactive) | GI50 (MDA-N): > 100 µM (inactive) | GI50 (OVCAR-5): > 100 µM (inactive) | GI50 (MCF7): > 100 µM (inactive) | GI50 (HL-60): 24.3 µM (inactive) | GI50 (SF-268): > 100 µM (inactive) | GI50 (SW-620): > 100 µM (inactive) | GI50 (MDA-MB-435): > 100 µM (inactive) | GI50 (IGROV-1): > 100 µM (inactive) | GI50 (SK-MEL-2): > 100 µM (inactive) | GI50 (RXF 393): > 100 µM (inactive) | GI50 (UACC-257): > 100 µM (inactive) | GI50 (SK-OV-3): > 100 µM (inactive) | GI50 (A549): > 100 µM (inactive) | GI50 (SK-MEL-5): > 100 µM (inactive) | GI50 (SNB-19): > 100 µM (inactive) | GI50 (SR): > 100 µM (inactive) | GI50 (K562): > 100 µM (inactive) | GI50 (Hs-578T): > 100 µM (inactive) | GI50 (SF-539): > 100 µM (inactive) | GI50 (PC-3): > 100 µM (inactive) | GI50 (OVCAR-4): > 100 µM (inactive) | GI50 (SK-MEL-28): > 100 µM (inactive) | GI50 (HOP-62): > 100 µM (inactive) | GI50 (COLO 205): > 100 µM (inactive) | GI50 (Malme-3M): > 100 µM (inactive) | GI50 (T47D): > 100 µM (inactive) | GI50 (SF-295): > 100 µM (inactive) | GI50 (U-251): > 100 µM (inactive) | GI50 (LOX IMVI): > 100 µM (inactive) | GI50 (SNB-75): > 100 µM (inactive) | GI50 (NCI-H226): > 100 µM (inactive) | GI50 (NCI-H23): > 100 µM (inactive) | GI50 (EKVX): > 100 µM (inactive) | GI50 (TK-10): > 100 µM (inactive) | GI50 (M14): > 100 µM (inactive) | GI50 (A498): > 100 µM (inactive)

CC(CN(C)C)Nc1c2ccccc2nc2cccc([N+](=O)[O-])c12 (stereo not drawn)
GI50 (NCI-H522): 0.0268 µM (active) | GI50 (MDA-N): 0.23 µM (active) | GI50 (HL-60): 0.203 µM (active)
